Measured values from patent US20140342913A1, “GENES PROVIDING TOLERANCE TO PDS INHIBITORS” (SYNGENTA PARTICIPATIONS AG, priority 2013, published 2014).

System: 18900 transformants (soybean plants)
Assay: Herbicide resistance of soybean transformants with stacked ADSS Q289N gene
Type: in vivo
Settings: soybean transformed with 18900 (Rhodobacter CrtI + Arabidopsis ADSS Q289N)
Excerpt: In order to test expression of stacked genes when phytoene desaturease is used as selectable marker, we constructed several vectors with Anemonia majano cyan fluorescent protein gene AmCyan and herbicide resistance (ADSS) or detoxification (cytochrome P450) genes as examples. Binary transformation vector 18340 (FIG. 7) contains Gloeobacter CrtI expression cassette linked to an AmCyan expression cassette. 18340 was derived from insertion of prCMP-AmCyan-tNOS cassette into 18239. Similarly, binary transformation vector 18341 (FIG. 8) contains Rhodobacter CrtI and AmCyan expression cassettes and was constructed by inserting the prCMP-AmCyan-tNOS cassette into 18238. 18900 (FIG. 9) is a binary vector containing Rhodobacter CrtI expression cassette linked with an Arabidopsis adenylosuccinate synthase (ADSS) Q289N mutant expression cassette under the control of prCMP promoter. 18932 (FIG. 10) is a binary vector containing Rhodobacter CrtI expression cassette and an expression cassette for rice cytochrome P450 monooxygenase gene (Genbank accession # OSJNBb0048A17.18) under the control of prCMP promoter. […]
Binary vectors 18340, […], 18900 and 18932 were transformed into soybean plants using norfurazon as selection agent. […] 18932 transformants were evaluated for their resistance against HPPD herbicide mesotrione.

O=C1NC(=O)[C@]2(N1)O[C@H](CO)[C@@H](O)[C@H]2O [hydantocidin]
resistance of transformants to herbicidal compound: resistant
